# Experimental data taken from patent publication US20200288711A1, “Pyrimidin-4-Carbamate or Urea Derivatives As Herbicides” (Syngenta Participations AG, priority 2017, published 2020).
# Tests used:
# Format in all cases: in vivo
# Setaria faberi (SETFA) [1] = assay: B1 pre-emergence herbicidal activity; set-up: key to Pre-emergence herbicidal activity, SETFA: 5=total damage to plant; 0=no damage to plant; conditions: Test 1b, rate 1000 g/ha, evaluated after 13 days, score 0-5 (5=total damage, 0=no damage)
# Method: (§1) Seeds of a variety of test species were sown in standard soil in pots: Triticum aestivium (TRZAW), Avena fatua (AVEFA), Alopecurus myosuroides (ALOMY), Echinochloa crus-galli (ECHCG), Lolium perenne (LOLPE), Zea mays (ZEAMX), Abutilon theophrasti (ABUTH), Amaranthus retroflexus (AMARE) and Setaria faberi (SETFA). After cultivation for one day (pre-emergence) under controlled conditions in a glasshouse (at 24/16° C., day/night; 14 hours light; 65% humidity), the plants were sprayed with an aqueous spray solution derived from the formulation of the technical active ingredient in acetone/water (50:50) solution containing 0.5% Tween 20 (polyoxyethelyene sorbitan monolaurate, CAS RN 9005-64-5). The test plants were then grown in a glasshouse under controlled conditions (at 24/16° C., day/night; 14 hours light; 65% humidity) and watered twice daily. After 13 days, the test was evaluated (5=total damage to plant; 0=no damage to plant).
# [2] = system: Echinochloa crus-galli (ECHCG); assay: B2 post-emergence herbicidal activity; set-up: key: 5=total damage to plant; 0=no damage to plant; conditions: Test 2b, rate 1000 g/ha, evaluated after 13 days, score 0-5 (5=total damage, 0=no damage)
# Method: (§2) Seeds of a variety of test species were sown in standard soil in pots: Triticum aestivium (TRZAW), Avena fatua (AVEFA), Alopecurus myosuroides (ALOMY), Echinochloa crus-galli (ECHCG), Lolium perenne (LOLPE), Zea mays (ZEAMX), Abutilon theophrasti (ABUTH), Amaranthus retroflexus (AMARE) and Setaria faberi (SETFA). After 8 days cultivation (post-emergence) under controlled conditions in a glasshouse (at 24/16° C., day/night; 14 hours light; 65% humidity), the plants were sprayed with an aqueous spray solution derived from the formulation of the technical active ingredient in acetone/water (50:50) solution containing 0.5% Tween 20 (polyoxyethelyene sorbitan monolaurate, CAS RN 9005-64-5). The test plants were then grown in a glasshouse under controlled conditions (at 24/16° C., day/night; 14 hours light; 65% humidity) and watered twice daily. After 13 days, the test was evaluated (5=total damage to plant; 0=no damage to plant).
# Avena fatua (AVEFA) [3] = assay: B2 post-emergence herbicidal activity; set-up: key: 5=total damage to plant; 0=no damage to plant; conditions: Test 2b, rate 1000 g/ha, evaluated after 13 days, score 0-5 (5=total damage, 0=no damage)
# Method: as §2
# [4] = system: Triticum aestivium (TRZAW); assay: B2 post-emergence herbicidal activity; set-up: key: 5=total damage to plant; 0=no damage to plant; conditions: Test 2b, rate 1000 g/ha, evaluated after 13 days, score 0-5 (5=total damage, 0=no damage)
# Method: as §2
# [5] = system: Alopecurus myosuroides (ALOMY); assay: B2 post-emergence herbicidal activity; set-up: key: 5=total damage to plant; 0=no damage to plant; conditions: Test 2b, rate 1000 g/ha, evaluated after 13 days, score 0-5 (5=total damage, 0=no damage)
# Method: as §2
# Setaria faberi (SETFA) [6] = assay: B2 post-emergence herbicidal activity; set-up: key: 5=total damage to plant; 0=no damage to plant; conditions: Test 2b, rate 1000 g/ha, evaluated after 13 days, score 0-5 (5=total damage, 0=no damage)
# Method: as §2
# Lolium perenne (LOLPE) [7] = assay: B2 post-emergence herbicidal activity; set-up: key: 5=total damage to plant; 0=no damage to plant; conditions: Test 2b, rate 1000 g/ha, evaluated after 13 days, score 0-5 (5=total damage, 0=no damage)
# Method: as §2
# Avena fatua (AVEFA) [8] = assay: B1 pre-emergence herbicidal activity; set-up: key: 5=total damage to plant; 0=no damage to plant; conditions: Test 1b, rate 1000 g/ha, evaluated after 13 days, score 0-5 (5=total damage, 0=no damage)
# Method: as §1
# [9] = system: Triticum aestivium (TRZAW); assay: B1 pre-emergence herbicidal activity; set-up: key: 5=total damage to plant; 0=no damage to plant; conditions: Test 1b, rate 1000 g/ha, evaluated after 13 days, score 0-5 (5=total damage, 0=no damage)
# Method: as §1
# [10] = system: Alopecurus myosuroides (ALOMY); assay: B1 pre-emergence herbicidal activity; set-up: key: 5=total damage to plant; 0=no damage to plant; conditions: Test 1b, rate 1000 g/ha, evaluated after 13 days, score 0-5 (5=total damage, 0=no damage)
# Method: as §1
# Lolium perenne (LOLPE) [11] = assay: B1 pre-emergence herbicidal activity; set-up: key: 5=total damage to plant; 0=no damage to plant; conditions: Test 1b, rate 1000 g/ha, evaluated after 13 days, score 0-5 (5=total damage, 0=no damage)
# Method: as §1
# [12] = system: Echinochloa crus-galli (ECHCG); assay: B1 pre-emergence herbicidal activity; conditions: Test 1b, rate 1000 g/ha, evaluated after 13 days, score 0-5 (5=total damage, 0=no damage)
# Method: as §1
SMILES,"Pre-emergence herbicidal activity, SETFA (Setaria faberi (SETFA) [1])","Control of weed species after post-emergence application, ECHCG [2]","Control of weed species after post-emergence application, AVEFA (Avena fatua (AVEFA) [3])","Control of weed species after post-emergence application, TRAZW [4]","Control of weed species after post-emergence application, ALOMY [5]","Control of weed species after post-emergence application, SETFA (Setaria faberi (SETFA) [6])","Control of weed species after post-emergence application, LOLPE (Lolium perenne (LOLPE) [7])","Pre-emergence herbicidal activity, AVEFA (Avena fatua (AVEFA) [8])","Pre-emergence herbicidal activity, TRAZW [9]","Pre-emergence herbicidal activity, ALOMY [10]","Pre-emergence herbicidal activity, LOLPE (Lolium perenne (LOLPE) [11])","Pre-emergence herbicidal activity, ECHCG [12]"
O=C1OCCN1c1cnc(-c2cncc(F)c2)nc1C(F)(F)F [Compound E17],4,3,2,1,0,4,1,0,0,0,0,3
CC(C)OC(=O)N(C(=O)OC(C)C)c1cnc(-c2cncc(F)c2)nc1C(F)(F)F [Compound E22],4,5,0,4,0,1,4,0,0,0,0,3
CN(C)C(=O)Nc1cnc(-c2cncc(F)c2)nc1C(F)(F)F [Compound E13],4,4,3,2,1,5,3,1,0,0,1,3
"O=C(Nc1cnc(-c2cncc(F)c2)nc1C(F)(F)F)N1CCOCC1 [Compound E8, N-[2-(5-fluoro-3-pyridyl)-4-(trifluoromethyl)pyrimidin-5-yl]morpholine-4-carboxamide]",4,4,3,1,1,5,3,2,0,0,1,3
"CC(C)OC(=O)Nc1cnc(-c2cncc(F)c2)nc1C(F)(F)F [Compound E14, isopropyl N-[2-(5-fluoro-3-pyridyl)-4-(trifluoromethyl)pyrimidin-5-yl]carbamate]",5,4,3,1,0,5,3,1,0,0,0,3
